Values of other authors in patent EP0604852A1, “2,4-Substituted 5-(N-substituted-sulfamoyl) benzoylguanidines, as antiarrhythmic agents, inhibitors of the proliferation of cells and inhibitors of sodium-hydrogen exchange” (HOECHST AKTIENGESELLSCHAFT, priority 1992, dated 1994).

Tested on: Rattenherzen
Details: isolated rat hearts; Eur. Heart J. 9 (Suppl.): 167 (1988)

SMILES	künstlich ausgelöstes Kammerflimmern
CCN(c1nc(N)c(C(=O)NC(=N)N)nc1Cl)C(C)C [Ethylisopropylamilorid]	Noch potenter als Amilorid
N=C(N)NC(=O)c1nc(Cl)c(N)nc1N [Amilorid]	völlig unterdrückt
